In general, LogP refers to the decadic logarithm of the partition coefficient of the neutral form, usually between octanol and water. Low readings indicate lower lipophilicity, high ones higher lipophilicity. In general, chromatographic logP refers to a lipophilicity value derived from retention on a column. Higher therefore signals higher lipophilicity.

LogP and chromatographic logP data for 64 molecules are collected here from patent US9556158B2, “Fungicidal 3-[(pyridin-2-ylmethoxyimino)(phenyl)methyl]-2-substituted-1,2,4-oxadiazol-5(2H)-one derivatives” (BAYER INTELLECTUAL PROPERTY GMBH, priority 2011, dated 2017).

For one series the following is noted: HPLC on reversed phase columns, pH 2.7, 0.1% formic acid in water / acetonitrile gradient.
Experimental: Measurement of log P values was performed according EEC directive 79/831 Annex V.A8 by HPLC (High Performance Liquid Chromatography) on reversed phase columns with the following method:
Measurement of LC-MS was done at pH 2.7 with 0.1% formic acid in water and with acetonitrile (contains 0.1% formic acid) as eluent with a linear gradient from 10% acetonitrile to 95% acetonitrile.
Calibration was done with not branched alkan2-ones (with 3 to 16 carbon atoms) with known log P-values (measurement of log P values using retention times with linear interpolation between successive alkanones). lambda-maX-values were determined using UV-spectra from 200 nm to 400 nm and the peak values of the chromatographic signals.
The molecule `Cn1oc(=O)nc1C(=NOCc1cccc(NC(=O)OC(C)(C)C)n1)c1cccc(F)c1F` [Example 187] came in with a LogP of 3.33.

The series is the same for the next values; noted with them: pH 2.7, LogP, HPLC on reversed phase columns, pH 2.7, 0.1% formic acid in water / acetonitrile gradient.
As for `CC#CCCOC(=O)Nc1cccc(CON=C(c2ccccc2)c2nc(=O)on2C)n1` [Example 156], the chromatographic logP was 3. `CCn1oc(=O)nc1C(=NOCc1cccc(N)n1)c1ccccc1` [Example 111]: the chromatographic logP is 1.07. For `CC(C)n1oc(=O)nc1C(=NOCc1cccc(NC(=O)OC(C)(C)C)n1)c1ccccc1` [Example 41], the chromatographic logP came out at 3.8. `Cc1ccc(C(=O)Nc2cccc(CON=C(c3ccccc3)c3nc(=O)on3C)n2)cc1` [Example 159]: the chromatographic logP worked out at 3.23. In the case of `CC(Oc1ccccc1)C(=O)Nc1cccc(CON=C(c2ccccc2)c2nc(=O)on2C)n1` (stereo not shown) [Example 140], the chromatographic logP was 3.35. For `COc1cccc(C(=NOCc2cccc(NC(=O)c3ccc(F)cc3)n2)c2nc(=O)o[nH]2)c1` [Example 62], the chromatographic logP turned out to be 3.09.

On to `Cn1oc(=O)nc1C(=NOCc1cccc(NC(=O)OCC(C)(C)C)n1)c1ccccc1` [Example 121], for which the chromatographic logP came to 3.7. Regarding `Cn1oc(=O)nc1C(=NOCc1cccc(NC(=O)c2ccc(F)cc2)n1)c1ccccc1` [Example 157], the chromatographic logP is 3.04.

On to `Cn1oc(=O)nc1C(=NOCc1cccc(NC(=O)OCC2CC2)n1)c1ccccc1` [Example 180], for which the chromatographic logP was found to be 3.04.

Regarding `CC(OC(=O)Nc1cccc(CON=C(c2ccccc2)c2nc(=O)on2C)n1)C1CCCC1` (stereo not shown) [Example 179], the chromatographic logP is 4.15. The molecule `C#CCCOC(=O)Nc1cccc(CON=C(c2cccc(F)c2F)c2nc(=O)on2C)n1` [Example 189] returned a chromatographic logP of 2.78.

Take `CC#CCOC(=O)Nc1cccc(CON=C(c2ccccc2)c2nc(=O)on2C)n1` [Example 134]: the chromatographic logP was 2.84.

`Cn1oc(=O)nc1/C(=N\OCc1cccc(N)n1)c1ccccc1` [Example 11, 3-[(Z)-{[(6-aminopyridin-2-yl)methoxy]imino}(phenyl)methyl]-2-methyl-1,2,4-oxadiazol-5(2H)-one] returned a chromatographic logP of 0.84.

In turn, `CCCCCCC(=O)Nc1cccc(CON=C(c2ccccc2)c2nc(=O)on2C)n1` [Example 120] showed a chromatographic logP of 3.65. Molecule `Cn1oc(=O)nc1C(=NOCc1cccc(NC(=O)c2ccccc2)n1)c1ccccc1` [Example 160] had a chromatographic logP of 2.92.

For `Cn1oc(=O)nc1/C(=N\OCc1cccc(Br)n1)c1ccccc1` [Example 193, 3-[(Z)-{[(6-bromopyridin-2-yl)methoxy]imino}(phenyl)methyl]-2-methyl-1,2,4-oxadiazol-5(2H)-one], the chromatographic logP was determined as 2.75. Consider `C=CCCCOC(=O)Nc1cccc(CON=C(c2ccccc2)c2nc(=O)on2C)n1` [Example 129], for which the chromatographic logP stood at 3.41.

The molecule `COc1cccc(C(=NOCc2cccc(NC(=O)Cc3ccccc3)n2)c2nc(=O)on2C)c1` [Example 166] had a chromatographic logP of 3.02.

Molecule `CCC(C)(C)C(=O)Nc1cccc(CON=C(c2ccccc2)c2nc(=O)on2C)n1` [Example 176] displayed a chromatographic logP of 3.17. On to `Cn1oc(=O)nc1C(=NOCc1cccc(NC(=O)C2CCCCC2)n1)c1ccccc1` [Example 146], for which the chromatographic logP stood at 3.29.

Take `Cn1oc(=O)nc1C(=NOCc1cccc(NC(=O)CCC2CCCC2)n1)c1ccccc1` [Example 145]: the chromatographic logP was 3.72. Still for that read-out and setting: next, `Cc1cccc(C(=NOCc2cccc(NC(=O)OCCc3ccccc3)n2)c2nc(=O)on2C)c1` [Example 168]: 3.85. On to `Cn1oc(=O)nc1C(=NOCc1cccc(N)n1)c1cccc(F)c1F` [Example 192], for which the chromatographic logP was 0.96. As to `COc1cccc(C(=NOCc2cccc(NC(=O)c3ccccc3)n2)c2nc(=O)o[nH]2)c1` [Example 67], the chromatographic logP came out at 2.96. On to `Cn1oc(=O)nc1C(=NOCc1cccc(NC(=O)OCc2ccccc2Cl)n1)c1ccccc1` [Example 184], for which the chromatographic logP stood at 3.76. In turn, `COc1cccc(C(=NOCc2cccc(N)n2)c2nc(=O)on2C)c1` [Example 24] came in with a chromatographic logP of 1.03.

`Cn1oc(=O)nc1C(=NOCc1cccc(NC(=O)c2ccc(F)cc2)n1)c1cccc(F)c1` [Example 92] showed a chromatographic logP of 3.15. For the molecule `C#CCCCC(=O)Nc1cccc(CON=C(c2ccccc2)c2nc(=O)on2C)n1` [Example 149], the chromatographic logP was 2.6. As to `Cn1oc(=O)nc1C(=NOCc1cccc(NC(=O)Cc2cccs2)n1)c1ccccc1` [Example 135], the chromatographic logP was 2.86. `COc1ccc(OC(=O)Nc2cccc(CON=C(c3ccccc3)c3nc(=O)on3C)n2)cc1` [Example 185]: the chromatographic logP is 3.15. Molecule `CCCCCC(=O)Nc1cccc(CON=C(c2ccccc2)c2nc(=O)on2CC)n1` [Example 174] yielded a chromatographic logP of 3.52. `C#CCOC(=O)Nc1cccc(CON=C(c2cccc(C)c2)c2nc(=O)on2C)n1` [Example 108]: the chromatographic logP was found to be 2.84. `Cc1cccc(C(=NOCc2cccc(NC(=O)Cc3cccc(F)c3)n2)c2nc(=O)on2C)c1` [Example 98] showed a chromatographic logP of 3.31. The same measure, in the same setting: for `Cn1oc(=O)nc1C(=NOCc1cccc(NC(=O)OCCC2CCCC2)n1)c1ccccc1` [Example 118] the value was 4.26; for `CCCCOC(=O)Nc1cccc(CON=C(c2cccc(F)c2F)c2nc(=O)on2C)n1` [Example 188], 3.46. Consider `Cn1oc(=O)nc1C(=NOCc1cccc(NC(=O)OC(C)(C)C)n1)c1cccc(F)c1F` [Example 113], for which the chromatographic logP was determined as 3.39.

`Cn1oc(=O)nc1C(=NOCc1cccc(NC(=O)OCCCC2CC2)n1)c1ccccc1` [Example 181] had a chromatographic logP of 3.76.

In turn, `Cn1oc(=O)nc1C(=NOCc1cccc(NC(=O)CCc2ccccc2)n1)c1ccccc1` [Example 119] registered a chromatographic logP of 3.21. Turning to `Cn1oc(=O)nc1C(=NOCc1cccc(NC(=O)COc2ccccc2)n1)c1ccccc1` [Example 139], the chromatographic logP worked out at 3.13. For `C=CCC(C)OC(=O)Nc1cccc(CON=C(c2ccccc2)c2nc(=O)on2C)n1` (stereo not shown) [Example 152], the chromatographic logP was 3.39. With `Cn1oc(=O)nc1C(=NOCc1cccc(NC(=O)Cc2ccccc2)n1)c1ccccc1` [Example 126], the chromatographic logP was determined as 2.94. On to `CCC#CCOC(=O)Nc1cccc(CON=C(c2ccccc2)c2nc(=O)on2C)n1` [Example 137], for which the chromatographic logP turned out to be 3.21. In turn, `Cc1cccc(C(=NOCc2cccc(NC(=O)CCc3ccccc3)n2)c2nc(=O)on2C)c1` [Example 79] came in with a chromatographic logP of 3.48.

Take `CC(C)CCOC(=O)Nc1cccc(CON=C(c2ccccc2)c2nc(=O)on2C)n1` [Example 161]: the chromatographic logP is 3.74.

In the case of `Cc1ccc(C(=O)Nc2cccc(CON=C(c3cccc(F)c3)c3nc(=O)o[nH]3)n2)cc1` [Example 77], the chromatographic logP is 3.33. In turn, `Cn1oc(=O)nc1C(=NOCc1cccc(NC(=O)OCCCC2CCCC2)n1)c1ccccc1` [Example 130] gave a chromatographic logP of 4.68.

`Cc1cccc(C(=O)Nc2cccc(CON=C(c3cccc(C)c3)c3nc(=O)on3C)n2)c1` [Example 86] displayed a chromatographic logP of 3.55.

Regarding `Cc1cccc(C(=NOCc2cccc(NC(=O)OCc3ccccc3)n2)c2nc(=O)on2C)c1` [Example 167], the chromatographic logP came out at 3.68. `C#CCC(C)OC(=O)Nc1cccc(CON=C(c2ccccc2)c2nc(=O)on2C)n1` (stereo not shown) [Example 125] displayed a chromatographic logP of 2.98.

On to `COc1cccc(C(=O)Nc2cccc(CON=C(c3ccccc3)c3nc(=O)on3C)n2)c1` [Example 132], for which the chromatographic logP was 3.02. Molecule `Cn1oc(=O)nc1C(=NOCc1cccc(NC(=O)OCCc2ccccc2)n1)c1cccc(F)c1` [Example 165] gave a chromatographic logP of 3.65. For the molecule `Cn1oc(=O)nc1C(=NOCc1cccc(NC(=O)OCCC2CCCCC2)n1)c1ccccc1` [Example 158], the chromatographic logP amounted to 4.63. On the same count and under the same terms, for `C#CCOC(=O)Nc1cccc(CON=C(c2cccc(OC)c2)c2nc(=O)on2C)n1` [Example 95] the value was 2.63; for `Cn1oc(=O)nc1C(=NOCc1cccc(NC(=O)OCCC2CC2)n1)c1ccccc1` [Example 138], 3.39; for `COc1cccc(C(=NOCc2cccc(NC(=O)C(C)(C)C)n2)c2nc(=O)on2C)c1` [Example 93], 2.92. With `C=CCCCCOC(=O)Nc1cccc(CON=C(c2ccccc2)c2nc(=O)on2C)n1` [Example 123], the chromatographic logP was 3.76.

Molecule `CCCCCC(=O)Nc1cccc(CON=C(c2ccccc2)c2nc(=O)on2CCOC)n1` [Example 175] had a chromatographic logP of 3.5.

In the case of `Cn1oc(=O)nc1C(=NOCc1cccc(NC(=O)OCc2ccccc2)n1)c1cccc(F)c1` [Example 163], the chromatographic logP amounted to 3.5.

The series is the same for the next values; noted with them: pH 2.7, LogP, HPLC on reversed phase columns, pH 2.7, 0.1% formic acid in water / acetonitrile gradient; compounds of formula (V), Table 2.
On to `CCN(O)C(=N)/C(=N\OCc1cccc(NC(=O)OC(C)(C)C)n1)c1ccccc1` [Example V-08, tert-butyl (6-{[({(1Z)-2-[hydroxy(ethyl)amino]-2-imino-1-(phenyl)ethylidene}amino)oxy]methyl}pyridin-2-yl)carbamate], for which the chromatographic logP came out at 1.9. As for `CN(O)C(=N)/C(=N\OCc1cccc(NC(=O)OC(C)(C)C)n1)c1cccc(F)c1` [Example V-05, tert-butyl (6-{[({(1Z)-2-[hydroxy(methyl)amino]-2-imino-1-(3-fluorophenyl)ethylidene}amino)oxy]methyl}pyridin-2-yl)carbamate], the chromatographic logP turned out to be 1.86. Regarding `CC(C)N(O)C(=N)C(=NOCc1cccc(NC(=O)OC(C)(C)C)n1)c1ccccc1` [Example V-09], the chromatographic logP turned out to be 2.05.

`CN(O)C(=N)C(=NOCc1cccc(NC(=O)OC(C)(C)C)n1)c1ccccc1C(F)F` [Example V-11]: the chromatographic logP is 2.43. Same read-out and setting: for `Cc1cccc(C(=NOCc2cccc(NC(=O)OC(C)(C)C)n2)C(=N)N(C)O)c1` [Example V-04] the value was 1.93.
